According to ChEMBL document CHEMBL1158459, “Discovery of a peroxisome proliferator activated receptor gamma (PPARgamma) modulator with balanced PPARalpha activity for the treatment of type 2 diabetes and dyslipidemia” (J Med Chem, 2009):
Calls of active or inactive are those of the source. The rule behind the calls is not given here.

Key:
Mus musculus [1] = assay: Antidiabetic activity in C57BLKS/J-m+/+Leprdb db/db mouse assessed as reduction in plasma glucose levels at 3 mg/kg, po once daily for 11 days relative to control; format: functional; set-up: scale not given: the % may be the effect or the level left
Mus musculus [2] = assay: Antidiabetic activity in C57BLKS/J-m+/+Leprdb db/db mouse assessed as reduction in plasma triglyceride levels at 3 mg/kg, po once daily for 11 days relative to control; format: functional; set-up: scale not given: the % may be the effect or the level left
Mus musculus [3] = assay: Antidiabetic activity in ob/ob mouse assessed as reduction in plasma triglyceride levels at 10 mg/kg, po once daily for 5 days relative to control; format: functional; set-up: scale not given: the % may be the effect or the level left
Mus musculus [4] = assay: Antidiabetic activity in ob/ob mouse assessed as insulin correction at 10 mg/kg, po once daily for 5 days relative to control; format: functional
[5] = Cmax in C57BLKS/J-m+/+Leprdb db/db mouse at 3 mg/kg, po once daily for 11 days; format: ADME, organism-based; set-up: dose 3 mg/kg, route oral; conditions: in vivo
[6] = Cmax in C57BLKS/J-m+/+Leprdb db/db mouse at 10 mg/kg, po once daily for 11 days; format: ADME, organism-based; set-up: dose 10 mg/kg, route oral; conditions: in vivo
[7] = AUC in C57BLKS/J-m+/+Leprdb db/db mouse at 3 mg/kg, po once daily for 11 days; format: ADME, organism-based; set-up: dose 3 mg/kg, route oral; conditions: plasma
[8] = AUC in high fat diet-fed streptozotocin-treated mouse at 30 mg/kg, po once daily for 12 days; format: ADME, organism-based; set-up: dose 30 mg/kg, route oral; conditions: plasma
Rattus norvegicus [9] = assay: Antidiabetic activity in Zucker fa/fa rat assessed as decrease in free fatty acid levels at 0.03 mg/kg, po once daily for 7 days; format: functional, organism-based; set-up: dose 0.03 mg/kg
Rattus norvegicus [10] = assay: Antidiabetic activity in Zucker fa/fa rat assessed as decrease in free fatty acid levels at 0.3 mg/kg, po once daily for 7 days; format: functional, organism-based; set-up: dose 0.3 mg/kg
Rattus norvegicus [11] = assay: Antidiabetic activity in Zucker fa/fa rat assessed as decrease in triglyceride levels at 15 mg/kg, po once daily for 7 days; format: functional, organism-based; set-up: dose 15 mg/kg
Rattus norvegicus [12] = assay: Antidiabetic activity in po dosed Zucker fa/fa rat assessed as insulin lowering activity treated once daily for 7 days; format: functional
Rattus norvegicus [13] = assay: Toxicity in Zucker fa/fa rat assessed as increase in heart weight at 10 mg/kg, po treated once daily for 7 days; format: organism-based; set-up: dose 10 mg/kg, route oral; conditions: in vivo, 168 h
[14] = Cmax in Syrian golden hamster at 0.3 mg/kg, po once daily for 9 days; format: ADME, organism-based, Mesocricetus auratus; set-up: dose 0.3 mg/kg, route oral; conditions: in vivo
[15] = AUC in Syrian golden hamster at 0.3 mg/kg, po once daily for 9 days; format: ADME, organism-based, Mesocricetus auratus; set-up: dose 0.3 mg/kg, route oral; conditions: plasma
[16] = AUC in Syrian golden hamster at 1 mg/kg, po once daily for 9 days; format: ADME, organism-based, Mesocricetus auratus; set-up: dose 1 mg/kg, route oral; conditions: plasma
[17] = AUC in Syrian golden hamster at 3 mg/kg, po once daily for 9 days; format: ADME, organism-based, Mesocricetus auratus; set-up: dose 3 mg/kg, route oral; conditions: plasma
Canis familiaris = assay: Antidiabetic activity in Beagle dog assessed as reduction in total cholesterol level at 3 mg/kg, po once daily for 14 days relative to control; format: functional, Canis lupus familiaris; set-up: scale not given: the % may be the effect or the level left
[18] = Cmax in Beagle dog at 1 mg/kg, po once daily for 14 days; format: ADME, organism-based, Canis lupus familiaris; set-up: dose 1 mg/kg, route oral; conditions: in vivo
Rattus norvegicus [19] = assay: Toxicity in Sprague-Dawley rat assessed as increase in heart weight at 60 mg/kg, po once daily for 14 days; format: organism-based; set-up: dose 60 mg/kg, route oral; conditions: in vivo, 336 h
Rattus norvegicus [20] = assay: Toxicity in Sprague-Dawley rat assessed as increase in brown adipose tissue weight at 60 mg/kg, po once daily for 14 days; format: organism-based; set-up: dose 60 mg/kg, route oral; conditions: in vivo, 336 h
Rattus norvegicus [21] = assay: Toxicity in Sprague-Dawley rat assessed as hematocrit at 60 mg/kg, po once daily for 14 days; format: organism-based; set-up: dose 60 mg/kg, route oral; conditions: in vivo, 336 h
Rattus norvegicus [22] = assay: Toxicity in Sprague-Dawley rat assessed as increase in liver weight at 60 mg/kg, po once daily for 14 days; format: organism-based; set-up: dose 60 mg/kg, route oral; conditions: in vivo, 336 h
Rattus norvegicus [23] = assay: Toxicity in Sprague-Dawley rat assessed as increase albumin/globulin levels at 60 mg/kg, po once daily for 14 days; format: organism-based; set-up: dose 60 mg/kg, route oral; conditions: in vivo, 336 h
[24] = molecular target: T1, Peroxisome proliferator-activated receptor alpha (Homo sapiens, UniProt Q07869); assay: Inhibition of human PPARalpha receptor by scintillation proximity assay
T1 sequence (Q07869 whole entry): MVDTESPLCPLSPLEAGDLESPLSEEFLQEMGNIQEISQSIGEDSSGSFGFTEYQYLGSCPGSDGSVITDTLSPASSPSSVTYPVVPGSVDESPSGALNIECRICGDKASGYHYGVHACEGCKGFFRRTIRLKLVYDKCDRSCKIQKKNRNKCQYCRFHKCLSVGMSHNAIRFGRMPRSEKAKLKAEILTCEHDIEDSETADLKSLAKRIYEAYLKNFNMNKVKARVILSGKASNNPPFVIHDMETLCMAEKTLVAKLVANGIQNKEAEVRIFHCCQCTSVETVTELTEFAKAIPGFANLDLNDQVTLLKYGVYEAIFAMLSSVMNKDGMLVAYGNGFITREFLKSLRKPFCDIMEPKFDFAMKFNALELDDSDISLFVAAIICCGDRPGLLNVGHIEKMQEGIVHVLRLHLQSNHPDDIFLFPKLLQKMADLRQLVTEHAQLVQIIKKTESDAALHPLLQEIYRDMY

[25] = Agonist activity at hamster PPARalpha receptor; format: functional, Cricetinae
[26] = molecular target: Glucocorticoid receptor (Homo sapiens) (UniProt P04150); assay: Binding affinity to GR up to 10 uM
[27] = molecular target: Estrogen receptor (Homo sapiens) (UniProt P03372); assay: Binding affinity to ERalpha up to 10 uM
[28] = molecular target: Estrogen receptor beta (Homo sapiens) (UniProt Q92731); assay: Binding affinity to ERbeta up to 10 uM
[29] = molecular target: Thyroid hormone receptor beta (Homo sapiens) (UniProt P10828); assay: Binding affinity to TRbeta up to 10 uM
[30] = molecular target: Oxysterols receptor LXR-beta (Homo sapiens) (UniProt P55055); assay: Activity at LXRbeta receptor up to 10 uM by transactivation assay
[31] = molecular target: Estrogen receptor beta (Homo sapiens) (UniProt Q92731); assay: Activity at ERbeta receptor up to 10 uM by transactivation assay
[32] = molecular target: Thyroid hormone receptor alpha (Homo sapiens) (UniProt P10827); assay: Activity at TRalpha receptor up to 10 uM by transactivation assay
[33] = molecular target: T2, Peroxisome proliferator-activated receptor gamma (Homo sapiens, UniProt P37231)
T2 sequence (P37231 whole entry): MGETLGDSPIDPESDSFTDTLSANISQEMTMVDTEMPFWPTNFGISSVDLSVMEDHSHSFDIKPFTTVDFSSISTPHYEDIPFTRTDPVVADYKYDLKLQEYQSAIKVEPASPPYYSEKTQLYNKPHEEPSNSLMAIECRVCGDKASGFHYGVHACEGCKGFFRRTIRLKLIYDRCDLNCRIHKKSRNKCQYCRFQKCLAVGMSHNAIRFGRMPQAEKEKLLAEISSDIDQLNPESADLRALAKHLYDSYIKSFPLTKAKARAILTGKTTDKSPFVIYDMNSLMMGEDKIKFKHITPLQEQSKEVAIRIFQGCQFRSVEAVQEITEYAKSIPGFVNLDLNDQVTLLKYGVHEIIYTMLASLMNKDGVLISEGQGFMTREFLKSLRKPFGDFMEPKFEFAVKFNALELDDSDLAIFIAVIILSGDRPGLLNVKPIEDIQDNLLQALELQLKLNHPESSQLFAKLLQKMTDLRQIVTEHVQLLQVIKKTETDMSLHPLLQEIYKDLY
Description: Inhibition of human PPARgamma receptor by scintillation proximity assay

[34] = molecular target: T2, Peroxisome proliferator-activated receptor gamma; remark: listed apart in the source
Description: Agonist activity at human PPARgamma receptor expressed in african green monkey COS1 cells co-transfected with fused yeast Gal4-DBD by transactivation assay

Sequence of Estrogen receptor beta (Homo sapiens) (Q92731 whole entry): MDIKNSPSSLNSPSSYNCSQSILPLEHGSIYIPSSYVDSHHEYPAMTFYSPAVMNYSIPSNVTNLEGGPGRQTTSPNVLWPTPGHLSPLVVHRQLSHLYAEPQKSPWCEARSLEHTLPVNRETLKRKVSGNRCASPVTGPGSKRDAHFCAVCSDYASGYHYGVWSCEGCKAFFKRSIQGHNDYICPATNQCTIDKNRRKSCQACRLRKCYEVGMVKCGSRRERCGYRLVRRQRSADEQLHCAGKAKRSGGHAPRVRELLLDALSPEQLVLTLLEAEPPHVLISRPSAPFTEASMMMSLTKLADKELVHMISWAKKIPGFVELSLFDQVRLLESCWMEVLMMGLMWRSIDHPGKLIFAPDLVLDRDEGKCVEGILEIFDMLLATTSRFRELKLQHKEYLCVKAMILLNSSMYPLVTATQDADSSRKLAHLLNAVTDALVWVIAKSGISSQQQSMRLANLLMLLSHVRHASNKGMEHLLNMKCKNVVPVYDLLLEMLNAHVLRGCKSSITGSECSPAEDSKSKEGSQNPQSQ
Sequence of Thyroid hormone receptor alpha (Homo sapiens) (P10827 whole entry): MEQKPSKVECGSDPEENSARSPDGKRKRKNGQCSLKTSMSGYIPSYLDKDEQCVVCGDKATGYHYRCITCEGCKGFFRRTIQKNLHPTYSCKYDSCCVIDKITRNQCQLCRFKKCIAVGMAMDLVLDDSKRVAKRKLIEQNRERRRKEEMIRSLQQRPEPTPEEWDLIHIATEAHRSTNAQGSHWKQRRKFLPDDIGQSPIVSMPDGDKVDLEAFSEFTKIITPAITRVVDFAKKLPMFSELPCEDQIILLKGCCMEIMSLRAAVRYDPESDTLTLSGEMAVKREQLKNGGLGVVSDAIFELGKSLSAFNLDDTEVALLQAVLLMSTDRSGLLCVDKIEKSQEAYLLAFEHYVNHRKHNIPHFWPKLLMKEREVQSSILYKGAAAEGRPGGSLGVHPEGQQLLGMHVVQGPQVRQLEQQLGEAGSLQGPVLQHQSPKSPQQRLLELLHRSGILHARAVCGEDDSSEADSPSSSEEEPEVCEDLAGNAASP
Sequence of Glucocorticoid receptor (Homo sapiens) (P04150 whole entry): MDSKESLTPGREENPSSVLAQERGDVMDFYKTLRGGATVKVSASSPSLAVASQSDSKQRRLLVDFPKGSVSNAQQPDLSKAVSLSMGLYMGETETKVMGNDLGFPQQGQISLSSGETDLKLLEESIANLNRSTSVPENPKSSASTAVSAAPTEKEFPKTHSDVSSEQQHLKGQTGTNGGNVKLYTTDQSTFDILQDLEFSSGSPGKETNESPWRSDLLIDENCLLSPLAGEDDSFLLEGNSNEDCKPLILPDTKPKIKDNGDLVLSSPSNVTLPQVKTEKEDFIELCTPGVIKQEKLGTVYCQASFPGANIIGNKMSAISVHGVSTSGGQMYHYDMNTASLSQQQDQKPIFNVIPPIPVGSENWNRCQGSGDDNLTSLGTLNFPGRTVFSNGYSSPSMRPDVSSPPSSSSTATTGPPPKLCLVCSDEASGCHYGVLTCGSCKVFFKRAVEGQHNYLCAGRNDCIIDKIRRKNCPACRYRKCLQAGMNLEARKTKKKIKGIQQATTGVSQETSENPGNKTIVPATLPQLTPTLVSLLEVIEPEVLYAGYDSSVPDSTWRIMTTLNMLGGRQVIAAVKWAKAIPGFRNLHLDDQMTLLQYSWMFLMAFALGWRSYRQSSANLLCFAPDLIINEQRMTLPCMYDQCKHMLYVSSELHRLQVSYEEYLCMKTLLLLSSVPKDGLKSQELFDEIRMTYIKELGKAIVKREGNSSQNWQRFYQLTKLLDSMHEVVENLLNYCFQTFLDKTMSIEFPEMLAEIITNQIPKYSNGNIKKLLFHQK
Sequence of Oxysterols receptor LXR-beta (Homo sapiens) (P55055 whole entry): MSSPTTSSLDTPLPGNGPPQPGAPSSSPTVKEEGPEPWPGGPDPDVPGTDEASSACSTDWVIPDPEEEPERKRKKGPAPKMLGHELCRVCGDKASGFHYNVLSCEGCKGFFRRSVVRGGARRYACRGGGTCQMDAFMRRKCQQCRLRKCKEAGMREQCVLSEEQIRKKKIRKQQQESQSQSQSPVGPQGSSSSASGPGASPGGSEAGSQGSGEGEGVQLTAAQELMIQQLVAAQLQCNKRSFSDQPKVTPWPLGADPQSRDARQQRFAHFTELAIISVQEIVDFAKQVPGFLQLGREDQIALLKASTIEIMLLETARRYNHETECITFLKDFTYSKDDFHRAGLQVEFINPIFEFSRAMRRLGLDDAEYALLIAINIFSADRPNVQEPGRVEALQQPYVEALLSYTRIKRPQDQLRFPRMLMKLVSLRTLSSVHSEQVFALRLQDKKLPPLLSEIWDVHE
Sequence of Estrogen receptor (Homo sapiens) (P03372 whole entry): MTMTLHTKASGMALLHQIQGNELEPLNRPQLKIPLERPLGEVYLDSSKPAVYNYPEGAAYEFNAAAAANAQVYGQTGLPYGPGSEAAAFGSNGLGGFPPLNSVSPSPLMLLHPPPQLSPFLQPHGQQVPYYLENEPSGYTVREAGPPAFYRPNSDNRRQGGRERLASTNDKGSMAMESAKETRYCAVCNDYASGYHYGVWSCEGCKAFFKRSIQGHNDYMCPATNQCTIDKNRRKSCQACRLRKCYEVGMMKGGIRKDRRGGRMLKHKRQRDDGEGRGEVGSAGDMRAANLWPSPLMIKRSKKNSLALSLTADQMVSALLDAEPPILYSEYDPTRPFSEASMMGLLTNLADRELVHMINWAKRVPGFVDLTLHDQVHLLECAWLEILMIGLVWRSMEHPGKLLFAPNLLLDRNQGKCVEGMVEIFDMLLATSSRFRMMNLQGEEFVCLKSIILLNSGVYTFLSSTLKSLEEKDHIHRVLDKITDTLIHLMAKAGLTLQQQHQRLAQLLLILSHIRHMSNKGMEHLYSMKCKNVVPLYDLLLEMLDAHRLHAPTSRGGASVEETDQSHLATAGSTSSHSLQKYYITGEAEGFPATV
Sequence of Thyroid hormone receptor beta (Homo sapiens) (P10828 whole entry): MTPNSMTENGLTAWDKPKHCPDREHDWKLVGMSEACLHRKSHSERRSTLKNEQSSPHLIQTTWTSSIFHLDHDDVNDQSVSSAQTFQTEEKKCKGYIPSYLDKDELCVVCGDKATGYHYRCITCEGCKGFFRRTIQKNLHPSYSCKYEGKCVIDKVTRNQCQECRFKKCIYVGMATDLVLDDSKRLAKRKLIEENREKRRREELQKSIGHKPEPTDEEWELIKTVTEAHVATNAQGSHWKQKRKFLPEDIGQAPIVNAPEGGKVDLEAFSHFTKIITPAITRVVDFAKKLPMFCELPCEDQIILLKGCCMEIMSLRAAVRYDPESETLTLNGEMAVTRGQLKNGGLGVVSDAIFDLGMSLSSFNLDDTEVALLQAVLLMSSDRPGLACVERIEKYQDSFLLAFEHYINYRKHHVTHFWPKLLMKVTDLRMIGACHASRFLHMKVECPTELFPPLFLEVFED

Structure (SMILES): CC[C@@H](Oc1cccc(Cn2c(C)c(C(=O)c3ccc(Cl)cc3)c3ccc(OC(F)(F)F)cc32)c1)C(=O)O
- Activity (Mus musculus [1]): 98%
- Activity (Mus musculus [2]): 85%
- Activity (Mus musculus [3]): 50%
- Activity (Mus musculus [4]): 89%
- Cmax [5]: 5.4 µM
- Cmax [6]: 9.6 µM
- AUC at 264 h [7]: 6.4 µM·h
- AUC at 288 h [8]: 8.2 µM·h
- Activity (Rattus norvegicus [9]): Active
- Activity (Rattus norvegicus [10]): Active
- Activity (Rattus norvegicus [11]): Active
- ED50 (Rattus norvegicus [12]): 10 µM·h
- Activity (Rattus norvegicus [13]): Toxic
- Cmax [14]: 0.02 µM
- AUC at 216 h [15]: 0.13 µM·h
- AUC at 216 h [16]: 0.55 µM·h
- AUC at 216 h [17]: 2.11 µM·h
- Activity (Canis familiaris): 26%
- Cmax [18]: 1.03 µM
- Activity (Rattus norvegicus [19]): 1%
- Activity (Rattus norvegicus [20]): 32%
- Activity (Rattus norvegicus [21]): -8%
- Activity (Rattus norvegicus [22]): 127%
- Activity (Rattus norvegicus [23]): 45%
- IC50 [24]: 2620 nM
- EC50 [25]: 0.46 nM
- Activity [26]: inactive
- Activity [27]: inactive
- Activity [28]: inactive
- Activity [29]: inactive
- Activity [30]: inactive
- Activity [31]: inactive
- Activity [32]: inactive
- IC50 [33]: 9 nM
- EC50 [34]: 2 nM
